The record followed here is PubChem BioAssay AID328 (DTP/NCI, 2004).

Values joined by “and” are separate entries in the source; they are usually repeats but may differ in a detail not shown here. Equal values may be shown once. Toxic doses and inconclusive results are not listed.

The experiment deals with BDF1 mice, P388 leukemia ip, median survival T/C. The experiment is described as follows: NCI In Vivo Anticancer Drug Screen. Data for tumor model P388 Leukemia (intraperitoneal) in B6D2F1 (BDF1) mice. The settings on record: endpoint: median survival time, higher = longer survival. The method in brief:
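In tumour-bearing mice, survival after compound treatment is set against the vehicle group and given as a quotient.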

[1] abbreviates: dose: 100.0 mg/kg/injection, schedule: Q04DX003 (ip), vehicle: saline with Tween-80.
Setting [2] is: dose: 200.0 mg/kg/injection, schedule: Q04DX003 (ip), vehicle: saline with Tween-80.
The mark [3] stands for this setting: dose: 400.0 mg/kg/injection, schedule: Q04DX003 (ip), vehicle: saline with Tween-80.
The mark [4] stands for this setting: dose: 100.0 mg/kg/injection, schedule: Q01DX009 (ip), vehicle: saline with Tween-80.
Setting [5] is: dose: 200.0 mg/kg/injection, schedule: Q01DX009 (ip), vehicle: saline with Tween-80.
Where [6] appears, read: dose: 100.0 mg/kg/injection, schedule: Q01DX009 (ip), vehicle: saline.
Setting [7] is: dose: 100.0 mg/kg/injection, schedule: Q04DX003 (ip), vehicle: saline.

`CCC1(O)CC2CN(CCc3c([nH]c4ccccc34)C(C(=O)OC)(c3cc4c(cc3OC)N(C)C3C(O)(C(N)=O)C(O)C5(CC)C=CCN6CCC43C65)C2)C1` (stereo unspecified) (tested in a mixture with another compound): the T/C was 188 % of control (dose: 0.65 mg/kg/injection, schedule: Q04DX003 (ip), vehicle: saline); 154 % of control (dose: 0.87 mg/kg/injection, schedule: Q04DX003 (ip), vehicle: saline); 223 % of control (dose: 1.08 mg/kg/injection, schedule: Q04DX003 (ip), vehicle: saline); 187 % of control (dose: 1.3 mg/kg/injection, schedule: Q04DX003 (ip), vehicle: saline); 238 % of control (dose: 1.8 mg/kg/injection, schedule: Q04DX003 (ip), vehicle: saline); 163 % of control (dose: 2.0 mg/kg/injection, schedule: Q04DX003 (ip), vehicle: saline). The T/C reads like this: (dose: 3.0 mg/kg/injection, schedule: Q04DX003 (ip), vehicle: saline) 101 % of control; (dose: 500.0 micrograms/kg/injection, schedule: Q04DX003 (ip), vehicle: saline) 175 % of control; (dose: 648.0 micrograms/kg/injection, schedule: Q04DX003 (ip), vehicle: saline) 203 % of control; (dose: 1000.0 micrograms/kg/injection, schedule: Q04DX003 (ip), vehicle: saline) 250 % of control; (dose: 1080.0 micrograms/kg/injection, schedule: Q04DX003 (ip), vehicle: saline) 237 % of control; (dose: 1800.0 micrograms/kg/injection, schedule: Q04DX003 (ip), vehicle: saline) 237 % of control. Further, the T/C runs as follows: (dose: 2000.0 micrograms/kg/injection, schedule: Q04DX003 (ip), vehicle: saline) 211 % of control; (dose: 4000.0 micrograms/kg/injection, schedule: Q04DX003 (ip), vehicle: saline) 96 % of control.

Turning to `O=C(c1ccccc1)C1Cc2ccccc2C1=O` (stereo unspecified), the T/C (dose: 100.0 mg/kg/injection, schedule: Q01DX001 (ip), vehicle: Klucel (hydroxypropylcellulose) (HPC)) is 100 % of control; the T/C (dose: 100.0 mg/kg/injection, schedule: Q01DX009 (ip), vehicle: Klucel (hydroxypropylcellulose) (HPC)) is 113 % of control; the T/C (dose: 100.0 mg/kg/injection, schedule: Q04DX003 (ip), vehicle: Klucel (hydroxypropylcellulose) (HPC)) was 100 % of control; the T/C (dose: 200.0 mg/kg/injection, schedule: Q01DX001 (ip), vehicle: Klucel (hydroxypropylcellulose) (HPC)) was 100 % of control; the T/C (dose: 200.0 mg/kg/injection, schedule: Q01DX009 (ip), vehicle: Klucel (hydroxypropylcellulose) (HPC)) was 109 % of control; the T/C (dose: 200.0 mg/kg/injection, schedule: Q04DX003 (ip), vehicle: Klucel (hydroxypropylcellulose) (HPC)) is 100 % of control. Besides, the T/C runs as follows: (dose: 400.0 mg/kg/injection, schedule: Q01DX001 (ip), vehicle: Klucel (hydroxypropylcellulose) (HPC)) 95 % of control; (dose: 400.0 mg/kg/injection, schedule: Q01DX009 (ip), vehicle: Klucel (hydroxypropylcellulose) (HPC)) 118 % of control; (dose: 400.0 mg/kg/injection, schedule: Q04DX003 (ip), vehicle: Klucel (hydroxypropylcellulose) (HPC)) 90 % of control.

For the compound `CCNC(C)(C)C(SS(=O)(=O)O)c1cccs1` (stereo unspecified), the T/C was 121 % of control (dose: 100.0 mg/kg/injection, schedule: Q01DX009 (ip), vehicle: water); 102 % of control (dose: 100.0 mg/kg/injection, schedule: Q04DX003 (ip), vehicle: water); 121 % of control (dose: 200.0 mg/kg/injection, schedule: Q01DX009 (ip), vehicle: water); 111 % of control (dose: 200.0 mg/kg/injection, schedule: Q04DX003 (ip), vehicle: water); 93 % of control (dose: 400.0 mg/kg/injection, schedule: Q04DX003 (ip), vehicle: water).

Consider `COC(=O)C12OCC34C(CC(C(C)=O)C(C)(CC(=O)O)C3C(O)C1O)OC(=O)C(OC(=O)/C=C(\C)C(C)C)C24` (stereo unspecified), for which the T/C runs as follows: (dose: 0.25 mg/kg/injection, schedule: Q01DX009 (ip), vehicle: saline) 94 % of control; (dose: 0.5 mg/kg/injection, schedule: Q01DX009 (ip), vehicle: saline) 92 % of control; (dose: 2.0 mg/kg/injection, schedule: Q01DX009 (ip), vehicle: saline) 92 % of control; (dose: 4.0 mg/kg/injection, schedule: Q01DX009 (ip), vehicle: saline) 90 % of control.

For `CNC(=O)c1ccc(C(=O)NC)cc1`, the T/C reads like this: under setting [1], 100 % of control; under setting [2], 100 % of control; under setting [3], 109 % of control.

For the compound `COc1ccc(C2CCc3cc4c(cc3/C2=N/O)OCO4)cc1OC` (stereo unspecified), the T/C by setting is: under setting [4], 104 % of control; under setting [1], 100 % of control; under setting [5], 104 % of control; under setting [2], 100 % of control; (dose: 400.0 mg/kg/injection, schedule: Q01DX009 (ip), vehicle: saline with Tween-80) 95 % of control; under setting [3], 90 % of control.

Turning to `Cc1cc(C)c(C)c(C(O)(C(=O)O)c2ccccc2)c1` (stereo unspecified), the T/C runs as follows: under setting [4], 87 % of control; under setting [5], 104 % of control.

Consider `O=C(O)C(O)C(O)C(=O)O` (stereo unspecified), for which the T/C is, setting by setting: under setting [6], 100 % of control; under setting [7], 91 % of control; (dose: 200.0 mg/kg/injection, schedule: Q01DX009 (ip), vehicle: saline) 110 % of control; (dose: 200.0 mg/kg/injection, schedule: Q04DX003 (ip), vehicle: saline) 100 % of control; (dose: 400.0 mg/kg/injection, schedule: Q01DX009 (ip), vehicle: saline) 100 % of control; (dose: 400.0 mg/kg/injection, schedule: Q04DX003 (ip), vehicle: saline) 104 % of control.

On to `CCOC(=O)C(C(=O)OCC)C1c2ccccc2C(=O)N(CCN(C)C)c2ccccc21` (stereo unspecified), for which the T/C (dose: 25.0 mg/kg/injection, schedule: Q01DX009 (ip), vehicle: saline) was 109 % of control; the T/C (dose: 50.0 mg/kg/injection, schedule: Q01DX009 (ip), vehicle: saline) was 95 % of control; the T/C (dose: 50.0 mg/kg/injection, schedule: Q04DX003 (ip), vehicle: saline) was 91 % of control; the T/C under setting [6] is 104 % of control; the T/C under setting [7] was 87 % of control.

Take `[I][Hg][CH2]C1COC([CH2][Hg][I])CO1` (stereo unspecified): the T/C was 95 % of control (dose: 0.78 mg/kg/injection, schedule: Q01DX010 (ip), vehicle: saline); 95 % of control and 118 % of control (dose: 1.56 mg/kg/injection, schedule: Q01DX010 (ip), vehicle: saline); 100 % of control and 122 % of control (dose: 3.13 mg/kg/injection, schedule: Q01DX010 (ip), vehicle: saline); 122 % of control (dose: 6.25 mg/kg/injection, schedule: Q01DX010 (ip), vehicle: saline); 118 % of control (dose: 12.5 mg/kg/injection, schedule: Q01DX010 (ip), vehicle: saline).

`CC1(NC(=O)N(CCCl)N=O)CCCC1`: the T/C by setting is: under setting [1], 272 % of control; under setting [2], 90 % of control.

As to `CCOC(=O)C(Cc1ccc(N(CCCl)CCCl)cc1)NC=O` (stereo unspecified), the T/C by setting is: (dose: 66.0 mg/kg/injection, schedule: Q04DX003 (ip), vehicle: saline with Tween-80) 181 % of control; under setting [1], 200 % of control and 209 % of control; (dose: 150.0 mg/kg/injection, schedule: Q04DX003 (ip), vehicle: saline with Tween-80) 268 % of control and 272 % of control; (dose: 375.0 micrograms/kg/injection, schedule: Q04DX003 (ip), vehicle: saline with Tween-80) 110 % of control; (dose: 750.0 micrograms/kg/injection, schedule: Q04DX003 (ip), vehicle: saline with Tween-80) 120 % of control.

Turning to `CCNC(C)(C)C(SSSC(c1cccs1)C(C)(C)NCC)c1cccs1` (stereo unspecified), the T/C reads like this: (dose: 100.0 mg/kg/injection, schedule: Q01DX001 (ip), vehicle: saline) 104 % of control; (dose: 200.0 mg/kg/injection, schedule: Q01DX001 (ip), vehicle: saline) 118 % of control.

For `COc1cccc2c1N=C1CCCC3CN(C(C)=O)CCC123` (stereo unspecified), the T/C (dose: 50.0 mg/kg/injection, schedule: Q01DX009 (ip), vehicle: saline with Tween-80) was 99 % of control; the T/C under setting [4] was 103 % of control; the T/C under setting [5] is 99 % of control.
